Experimental data published in ChEMBL document CHEMBL2375263, “Identification and design of a novel series of MGAT2 inhibitors” (Bioorg Med Chem Lett, 2013).
Values after ≈ are worked out from the molar mass of the structure shown.

What was measured:
[1] = Lipophilicity, log D of the compound at pH 7.4; assay type: physicochemical; conditions: buffer
[2] = Intrinsic clearance in human liver microsomes as 1 umol/l measured up to 30 mins by LC-MS analysis; assay type: ADME, Microsome; conditions: read-out: CLH
[3] = Solubility of the compound; assay type: physicochemical
[4] = molecular target: T1, Acyl-CoA wax alcohol acyltransferase 1 (Homo sapiens, UniProt Q58HT5); experiment: Inhibition of human recombinant AWAT1 expressed in insect cell membrane using palmitoleyl alcohol and [14C]stearoyl coenzyme A as substrate after 10 to 15 mins by liquid scintillation counting
T1 sequence (Q58HT5 whole entry): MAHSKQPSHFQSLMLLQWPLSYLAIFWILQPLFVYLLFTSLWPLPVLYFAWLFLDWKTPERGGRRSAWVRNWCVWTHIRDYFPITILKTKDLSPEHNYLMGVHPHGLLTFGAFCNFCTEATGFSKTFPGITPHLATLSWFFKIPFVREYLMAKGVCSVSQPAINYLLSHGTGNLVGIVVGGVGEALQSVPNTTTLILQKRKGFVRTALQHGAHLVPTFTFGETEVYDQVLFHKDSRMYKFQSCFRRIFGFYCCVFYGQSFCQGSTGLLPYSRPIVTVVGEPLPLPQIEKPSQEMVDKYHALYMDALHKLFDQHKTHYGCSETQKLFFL

[5] = Dissociation constant, pKa of the compound; assay type: physicochemical
Liver microsomes = experiment: Ratio of compound-glutathione adduct formation to clozapine-glutathione adduct formation in human liver microsomes at 10 umol/l after 30 mins by glutathione trapping method; assay type: ADME, Microsome; conditions: 0.5 h, 10 µM
[6] = Inhibition of CYP450 (unknown origin); assay type: ADME; conditions: human
[7] = molecular target: T2, Diacylglycerol O-acyltransferase 2 (Homo sapiens, UniProt Q96PD7); experiment: Inhibition of human recombinant DGAT2 using dioleoyl-sn-glycerol and [14C]oleoyl coenzyme A as substrate after 30 mins by liquid scintillation counting
T2 sequence (Q96PD7 whole entry): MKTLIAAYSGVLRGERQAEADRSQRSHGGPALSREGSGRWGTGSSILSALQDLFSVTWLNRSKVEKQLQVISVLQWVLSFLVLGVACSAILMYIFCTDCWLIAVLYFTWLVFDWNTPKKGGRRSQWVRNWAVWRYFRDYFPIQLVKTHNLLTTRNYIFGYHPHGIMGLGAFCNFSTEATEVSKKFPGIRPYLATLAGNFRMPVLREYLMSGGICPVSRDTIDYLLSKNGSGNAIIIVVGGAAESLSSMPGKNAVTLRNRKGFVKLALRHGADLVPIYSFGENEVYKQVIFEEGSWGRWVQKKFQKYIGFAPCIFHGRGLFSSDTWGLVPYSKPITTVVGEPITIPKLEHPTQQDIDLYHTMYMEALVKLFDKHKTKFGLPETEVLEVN

[8] = Time dependent inhibition of CYP450 (unknown origin); assay type: ADME; conditions: human
[9] = Apparent permeability from apical side to basolateral side of human Caco2 cells at 10 umol/l measured up to 120 mins by LCMS analysis; assay type: ADME, cell-based; conditions: Caco-2
[10] = molecular target: T3, Diacylglycerol O-acyltransferase 1 (Homo sapiens, UniProt O75907); experiment: Inhibition of human recombinant DGAT1 expressed in Sf9 cells using dioleoyl-sn-glycerol and [14C]oleoyl coenzyme A as substrate after 30 mins by liquid scintillation counting
T3 sequence (O75907 whole entry): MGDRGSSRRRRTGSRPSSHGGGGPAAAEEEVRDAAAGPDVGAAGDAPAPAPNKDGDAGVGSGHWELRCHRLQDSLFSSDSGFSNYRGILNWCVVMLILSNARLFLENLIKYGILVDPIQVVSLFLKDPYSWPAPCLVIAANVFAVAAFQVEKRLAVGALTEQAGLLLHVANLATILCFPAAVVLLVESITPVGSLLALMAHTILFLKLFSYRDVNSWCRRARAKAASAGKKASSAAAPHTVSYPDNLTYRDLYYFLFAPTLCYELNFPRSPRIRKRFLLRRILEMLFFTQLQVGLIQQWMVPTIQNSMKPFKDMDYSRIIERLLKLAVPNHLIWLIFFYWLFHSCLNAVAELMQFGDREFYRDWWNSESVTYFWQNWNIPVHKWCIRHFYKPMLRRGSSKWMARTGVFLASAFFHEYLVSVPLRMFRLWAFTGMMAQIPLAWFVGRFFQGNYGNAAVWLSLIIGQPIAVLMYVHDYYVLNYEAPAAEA

[11] = molecular target: T4, Acyl-CoA wax alcohol acyltransferase 2 (Homo sapiens, UniProt Q6E213); experiment: Inhibition of human recombinant AWAT2 expressed in insect cell membrane using cetyl alcohol and [14C]oleoyl coenzyme A as substrate after 10 to 15 mins by liquid scintillation counting
T4 sequence (Q6E213 whole entry): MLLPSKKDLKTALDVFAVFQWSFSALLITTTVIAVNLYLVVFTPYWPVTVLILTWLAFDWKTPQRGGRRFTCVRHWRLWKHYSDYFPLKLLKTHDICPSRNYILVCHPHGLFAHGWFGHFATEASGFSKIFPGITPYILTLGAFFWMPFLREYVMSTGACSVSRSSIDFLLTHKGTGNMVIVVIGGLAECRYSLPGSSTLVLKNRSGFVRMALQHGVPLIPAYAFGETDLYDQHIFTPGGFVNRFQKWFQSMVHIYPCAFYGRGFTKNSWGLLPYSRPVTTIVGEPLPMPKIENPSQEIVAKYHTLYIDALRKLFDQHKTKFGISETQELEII

[12] = Tmax in mouse at 100 mg/kg, po; assay type: ADME, organism-based; set-up: dose 100 mg/kg, route oral; conditions: in vivo
Mus musculus [13] = experiment: Antiobesity activity in C57Bl6J mouse assessed as inhibition of corn oil-induced triacylglycerol excursion at 150 mg/kg, po administered at 30 mins post corn-oil challenge measured after 2 hrs by oral lipid tolerance test relative to control; assay type: functional
Mus musculus [14] = experiment: Antiobesity activity in C57Bl6J mouse assessed as inhibition of corn oil-induced triacylglycerol excursion at 5 mg/kg, po administered at 30 mins post corn-oil challenge measured after 2 hrs by oral lipid tolerance test relative to control; assay type: functional

Row | logD [1] | microsomal CLint at 1 µM [2] | solubility [3] | IC50 [4] | pKa [5] | Ratio (Liver microsomes) | inhibition (INH) [6] | IC50 [7] | inhibition (INH) [8] | Papp A→B at 2 h, 10 µM [9] | IC50 [10] | IC50 [11] | Tmax [12] | SMILES | inhibition in vivo at 150 mg/kg (Mus musculus [13]) | inhibition in vivo at 5 mg/kg (Mus musculus [14])
1 | 2.2 | – | – | – | – | – | – | – | – | – | – | – | – | CCC1(CC)NC(=O)c2cc(S(=O)(=O)Nc3ccc(F)cc3F)ccc2NC1=O | – | –
2 | 2.9 | 3 µL/min/mg | 2 µM (≈ 0.816 µg/mL) | > 100 µM | 8.1 | 0.4 | Not Active | > 10 µM | Not Active | 5.5 ×10⁻⁶ cm/s | > 10 µM | > 100 µM | – | CCC1(C)NC(=O)c2cc(S(=O)(=O)Nc3ccc(Cl)cc3)ccc2NC1=O (racemic) | – | –
3 | 1.9 | < 5 µL/min/mg | – | > 100 µM | 8.7 | – | Not Active | > 10 µM | Not Active | 2.4 ×10⁻⁶ cm/s | > 10 µM | > 100 µM | – | CCC1(C)NC(=O)c2cc(S(=O)(=O)Nc3ccccc3)ccc2NC1=O (racemic) | – | –
4 | – | 221 µL/min/mg | – | > 100 µM | – | 0 | Not Active | > 10 µM | Not Active | 36 ×10⁻⁶ cm/s | > 10 µM | > 100 µM | – | CCC1(C)NC(=O)c2cc(S(=O)(=O)N(C)c3ccccc3)ccc2NC1=O (racemic) | – | –
5 | – | 7 µL/min/mg | – | > 100 µM | 7.9 | – | Not Active | > 10 µM | Not Active | 20 ×10⁻⁶ cm/s | > 10 µM | > 100 µM | – | CCC1(C)NC(=O)c2cc(S(=O)(=O)Nc3ccc(Cl)cc3)ccc2N(C)C1=O (racemic) | – | –
6 | – | 2.8 µL/min/mg | – | > 100 µM | 7.9 | – | Not Active | > 10 µM | Not Active | 1.1 ×10⁻⁶ cm/s | > 10 µM | > 100 µM | – | CC[C@]1(C)NC(=O)c2cc(S(=O)(=O)Nc3ccc(OC(F)F)cc3)ccc2NC1=O | – | –
7 | 2 | – | – | – | – | – | – | – | – | – | – | – | – | CCC1(C)NC(=O)c2cc(S(=O)(=O)NC3CCCCC3)ccc2NC1=O (racemic) | – | –
8 | 1.8 | – | – | – | – | – | – | – | – | – | – | – | – | CCC1(C)NC(=O)c2cc(S(=O)(=O)NCc3ccccc3)ccc2NC1=O (racemic) | – | –
9 | 1.8 | 16 µL/min/mg | – | > 100 µM | 5.6 | – | Not Active | > 10 µM | Not Active | 1.5 ×10⁻⁶ cm/s | > 10 µM | > 100 µM | – | CCC1(C)NC(=O)c2cc(S(=O)(=O)Nc3ccc(OC)cc3)ccc2NC1=O (racemic) | – | –
10 | 2.2 | – | – | – | – | – | – | – | – | – | – | – | – | CCCC1(C)NC(=O)c2cc(S(=O)(=O)Nc3ccc(F)cc3F)ccc2NC1=O (racemic) | – | –
11 | – | < 5 µL/min/mg | – | > 100 µM | 6.9 | – | Not Active | > 10 µM | Not Active | 3.1 ×10⁻⁶ cm/s | > 10 µM | > 100 µM | – | CC[C@]1(C)NC(=O)c2cc(S(=O)(=O)Nc3ccc(C(F)(F)F)cc3)ccc2NC1=O | – | –
12 | 1.6 | – | – | – | – | – | – | – | – | – | – | – | – | CC1(C)NC(=O)c2cc(S(=O)(=O)Nc3ccccc3)ccc2NC1=O | – | –
13 | 3 | – | – | – | – | – | – | – | – | – | – | – | – | O=C1NC2(CCCC2)C(=O)Nc2ccc(S(=O)(=O)Nc3ccc(Cl)cc3)cc21 | – | –
14 | 2.3 | – | – | – | – | – | – | – | – | – | – | – | – | CCC1(C)NC(=O)c2cc(S(=O)(=O)Nc3ccc(OC(F)F)cc3)ccc2NC1=O (racemic) | – | –
15 | 1.8 | – | – | – | – | – | – | – | – | – | – | – | – | CCC1(C)NC(=O)c2cc(S(=O)(=O)Nc3ccc(F)cc3F)ccc2NC1=O (racemic) | – | –
16 | 1.6 | – | – | – | – | – | – | – | – | – | – | – | – | CCC1NC(=O)c2cc(S(=O)(=O)Nc3ccccc3)ccc2NC1=O (racemic) | – | –
17 | – | 40 µL/min/mg | – | > 100 µM | 8 | 1.8 | Not Active | > 10 µM | Not Active | 16 ×10⁻⁶ cm/s | > 10 µM | > 100 µM | – | CCC1(CC)CNc2ccc(S(=O)(=O)Nc3ccc(F)cc3F)cc2C(=O)N1 | – | –
18 | – | < 5 µL/min/mg | – | > 100 µM | 7.3 | – | Not Active | > 10 µM | Not Active | 3.3 ×10⁻⁶ cm/s | > 10 µM | > 100 µM | 30 min | CC[C@]1(C)NC(=O)c2cc(S(=O)(=O)Nc3ccc(F)cc3F)ccc2NC1=O | 68% | 116%
19 | 3.1 | – | – | – | – | – | – | – | – | – | – | – | – | CCC1(C)NC(=O)c2cc(S(=O)(=O)Nc3ccc(C(F)(F)F)cc3)ccc2NC1=O (racemic) | – | –
20 | 1.9 | < 5 µL/min/mg | – | > 100 µM | 7.2 | 0.1 | Not Active | > 10 µM | Not Active | 6.4 ×10⁻⁶ cm/s | > 10 µM | > 100 µM | – | CCC1(C)NC(=O)c2cc(S(=O)(=O)Nc3ccccc3Cl)ccc2NC1=O (racemic) | – | –
21 | – | 9 µL/min/mg | – | > 100 µM | 7.1 | – | Not Active | > 10 µM | Not Active | 8.1 ×10⁻⁶ cm/s | > 10 µM | > 100 µM | – | CCC1(C)C(=O)Nc2ccc(S(=O)(=O)Nc3ccc(F)cc3F)cc2C(=O)N1C (racemic) | – | –
